# Test system: 898857-211-R-J1-PDC complex spheroids, growth % test/control
# Assay: Anticancer human tumor 898857-211-R-J1-PDC patient-derived melanoma cell line growth inhibition [RAS]
# Conditions: for IC50: curve of first compound; for viability, T/C: stronger effect = lower value
# Procedure, shortened: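 Multi-cell-type spheroids: tumor cells plus HUVEC endothelial cells and mesenchymal stem cells. RAS-pathway inhibitors were combined with targeted agents, each dosed in half-log steps down from clinical Cmax, or from 10 microM when Cmax was unknown.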
# 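Further: spheroids exposed to compound for seven days before readout.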
# 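Wherever viability, T/C is given: 100% = DMSO vehicle control wells.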
structure (smiles),measurement,setting,value
CCN1CCN(Cc2ccc(Nc3ncc(F)c(-c4cc(F)c5nc(C)n(C(C)C)c5c4)n3)nc2)CC1 + CCn1c(-c2cc(N3CCN(C)CC3)cnc2C(C)OC)c2c3cc(ccc31)-c1csc(n1)CC(NC(=O)C1CC1C)C(=O)N1CCCC(N1)C(=O)OCC(C)(C)C2,IC50,second compound 0.000949 µM,0.267 µM
same,IC50,second compound 0.003 µM,0.191 µM
same,IC50,second compound 0.00949 µM,0.261 µM
same,IC50,second compound 0.03 µM,0.248 µM
same,IC50,second compound 0.0949 µM,0.252 µM
same,IC50,second compound 0.3 µM,0.288 µM
same,"viability, T/C","second compound 0.000949 µM, first compound 0.00316 µM",108%
same,"viability, T/C","second compound 0.000949 µM, first compound 0.01 µM",94.2%
same,"viability, T/C","second compound 0.000949 µM, first compound 0.0316 µM",82.1%
same,"viability, T/C","second compound 0.000949 µM, first compound 0.1 µM",57.4%
same,"viability, T/C","second compound 0.000949 µM, first compound 0.316 µM",51.6%
same,"viability, T/C","second compound 0.000949 µM, first compound 1 µM",36.9%
same,"viability, T/C","second compound 0.003 µM, first compound 0.00316 µM",105%
same,"viability, T/C","second compound 0.003 µM, first compound 0.01 µM",96%
same,"viability, T/C","second compound 0.003 µM, first compound 0.0316 µM",85.8%
same,"viability, T/C","second compound 0.003 µM, first compound 0.1 µM",54.9%
same,"viability, T/C","second compound 0.003 µM, first compound 0.316 µM",47.7%
same,"viability, T/C","second compound 0.003 µM, first compound 1 µM",38.1%
same,"viability, T/C","second compound 0.00949 µM, first compound 0.00316 µM",96.8%
same,"viability, T/C","second compound 0.00949 µM, first compound 0.01 µM",97.4%
same,"viability, T/C","second compound 0.00949 µM, first compound 0.0316 µM",82.3%
same,"viability, T/C","second compound 0.00949 µM, first compound 0.1 µM",79.8%
same,"viability, T/C","second compound 0.00949 µM, first compound 0.316 µM",42.7%
same,"viability, T/C","second compound 0.00949 µM, first compound 1 µM",36.4%
same,"viability, T/C","second compound 0.03 µM, first compound 0.00316 µM",96.9%
same,"viability, T/C","second compound 0.03 µM, first compound 0.01 µM",102%
same,"viability, T/C","second compound 0.03 µM, first compound 0.0316 µM",75.4%
same,"viability, T/C","second compound 0.03 µM, first compound 0.1 µM",67.4%
same,"viability, T/C","second compound 0.03 µM, first compound 0.316 µM",46.3%
same,"viability, T/C","second compound 0.03 µM, first compound 1 µM",29.4%
same,"viability, T/C","second compound 0.0949 µM, first compound 0.00316 µM",107%
same,"viability, T/C","second compound 0.0949 µM, first compound 0.01 µM",113%
same,"viability, T/C","second compound 0.0949 µM, first compound 0.0316 µM",87.2%
same,"viability, T/C","second compound 0.0949 µM, first compound 0.1 µM",64.3%
same,"viability, T/C","second compound 0.0949 µM, first compound 0.316 µM",48.9%
same,"viability, T/C","second compound 0.0949 µM, first compound 1 µM",39%
same,"viability, T/C","second compound 0.3 µM, first compound 0.00316 µM",117%
same,"viability, T/C","second compound 0.3 µM, first compound 0.01 µM",110%
same,"viability, T/C","second compound 0.3 µM, first compound 0.0316 µM",76%
same,"viability, T/C","second compound 0.3 µM, first compound 0.1 µM",70.2%
same,"viability, T/C","second compound 0.3 µM, first compound 0.316 µM",48.5%
same,"viability, T/C","second compound 0.3 µM, first compound 1 µM",33.9%
